Where “and” joins values, the source holds several entries; their conditions need not be identical. Equal values may be shown once. Read-outs that look alike come from different tables or passages of the source.
Legend:
[1] = 1/BC50 plot, pyranoside 0 to 10.0 mM
Method: (§1) ^1H NMR titrations were performed in CDCl3 at a field strength of either 500, 800, or 900 MHz at 25, 20, 15, 10, or 5° C. The ^1H NMR resonances corresponding to both pyranoside and host were assigned through ^1H-^1H COSY and NOESY experiments.
(§2) This is the result of an exchange process involving 1 (H) and pyranoside (G) equilibria products exchanging fast on the NMR timescale, resulting in the averaging of chemical shifts of protons in differing chemical environments.
(§3) Fittings were conducted in Microsoft Excel 2007 using the Solver feature. […]
Thus, the binding of pyranosides was first studied under conditions where receptor 1 was maintained at a low concentration (<70 μM) to minimize the contribution of the Kdimer and K3 equilibria (FIG. 2). Once the values of K1 and K2 were determined, their values were held invariant in subsequent peak shift fittings, which facilitated the quantification of the other Kas. […]
(§4) For each non-mannoside, K1 was determined by subjecting all resolvable resonances from each titration at 25° C. to a global nonlinear fitting analysis with a model combining K1 and Kdimer (13.0±0.5 M^−1), which was measured independently by ^1H NMR dilution experiments (Table 1). […]

[2] = not given; remark: listed apart in the source
[3] = CDCl3, 25° C., extrapolated from a Van't Hoff plot
Method: as §1, §2, §3
Thus, the binding of pyranosides was first studied under conditions where receptor 1 was maintained at a low concentration (<70 μM) to minimize the contribution of the Kdimer and K3 equilibria (FIG. 2). Once the values of K1 and K2 were determined, their values were held invariant in subsequent peak shift fittings, which facilitated the quantification of the other Kas.
as §4

[4] = remark: listed apart in the source
Method: Note that all equilibria present in a receptor/pyranoside mixture contribute toward the calculated BC50 value, and a higher 1/BC50 value is indicative of a higher overall binding strength.
As each 1/BC50 plot is a measure of affinity between 1 and pyranosides, comparing the plots of two or more pyranosides provides a means of assessing selectivity.
The BC50^0 values of the pyranosides for receptor 1 were determined using Eq. 17.

[5] = 1:2 binding (K2), CDCl3, Van't Hoff

SMILES: c1c[nH]c(CNCc2cc(CNCc3ccc[nH]3)cc(-c3cc(CNCc4ccc[nH]4)cc(CNCc4ccc[nH]4)c3)c2)c1 [Compound 1, N,N′,N′N″N′″-([1,1′-biphenyl]-3,3′,5,5′-tetrayltetrakis(methylene))tetrakis (1-(1H-pyrrol-2-yl)methanamine)]
- concentration of α-Man where the maximum 1/BC50 value (maximum selectivity) is obtained [1]: 0.8 mM
- ΔH° [5]: -20.2 ± 1.2 kcal/mol
- ΔS° [5]: −52±4 e.u.
- interaction parameter α for K3 (K3 / reference Ka) (2:1 binding, 25° C.): at least 2.7
- approximate baseline (reference) Ka, 1:1 binding of 1 to the β-face of β-Man (from NMR detection limit, no NOEs on β-face, 0.5 mM 1, 1.0 mM β-Man, 25° C.): ≤ 104 M⁻¹
- Kdimer ([2]; CDCl3, 5° C.): 24.2 ± 0.5 M⁻¹
- Kdimer ([2]; CDCl3, 10° C.): 20.8 M⁻¹
- Kdimer ([2]; CDCl3, 15° C.): 16.9 M⁻¹
- Kdimer ([2]; CDCl3, 20° C.): 15.3 M⁻¹
- Kdimer ([2]; CDCl3, 25° C.): 13.0 M⁻¹ and 13.0 ± 0.5 M⁻¹
- K3 (2:1 receptor:pyranoside binding) [3]: 3 M⁻¹
- binding order ([4]; higher pyranoside concentrations (>1.0 mM)): α-Man>β-Man>β-Glc
- binding order ([4]; pyranoside from 0.3 mM to 1.0 mM): α-Man>β-Glc>β-Man

From patent US9296688B2, “Carbohydrate-selective receptors” (New York University, priority 2012, dated 2016)
